Series [1] deals with Rattus norvegicus. Briefly: Toxicity assessed as ulcerogenic activity in po dosed rat. As to conditions: in vivo. Format: organism-based.
Series [2] concerns Rattus norvegicus. Briefly: Antiinflammatory activity against carrageenan-induced paw edema in po dosed rat after 4 hrs. The format is functional. On the technique in general: The carrageenan paw model is a standard test of acute inflammation.
Series [3] relates to Rattus norvegicus. Briefly: Analgesic activity in po dosed rat. Format: functional.
The species entered for series [4] is Rattus norvegicus. Briefly: Effect on lipid peroxidation in rat gastric mucosa assessed as malondialdehyde level per 100 mg of tissue. Format: functional, organism-based.
For series [5], the system named is Rattus norvegicus. In words: Analgesic activity in rat at 30 mg/kg, po. Conditions: read-out: Inhibition.
Series [6] concerns Rattus norvegicus. Briefly: Antiinflammatory activity against carrageenan-induced paw edema in rat at 30 mg/kg, po after 4 hrs. As to conditions: read-out: Inhibition.

One may read the Inhibition as how much of the control response was suppressed. Low values mean little suppression, high ones strong suppression.

With `COc1ccc2cc(C(C)c3nnc4sc(-c5ccc(Cl)cc5Cl)nn34)ccc2c1` (stereo unspecified), the UI in the series with Rattus norvegicus [1] was 0.75. For the same compound, the figures for the Inhibition in the series with Rattus norvegicus [2] and in the series with Rattus norvegicus [3] were 68.93% and 37.2%, respectively. The Activity in the series listed under Rattus norvegicus [4] was found to be 5.63 nmol.

In the series on Rattus norvegicus [2], `COc1ccc2cc(C(C)c3nnc4sc(Nc5ccc(F)cc5)nn34)ccc2c1` (stereo unspecified) came in with an Inhibition of 40.14%.

In the case of `COc1ccc2cc(C(C)c3nnc4sc(COc5ccc(Cl)cc5Cl)nn34)ccc2c1` (stereo unspecified), the UI in the series on Rattus norvegicus [1] is listed as 0.667. Further, the Inhibition turned out to be 78.02% with Rattus norvegicus [2] and 80.3% in the series on Rattus norvegicus [3]. Besides, in the series listed under Rattus norvegicus [4], the Activity turned out to be 5.38 nmol.

In turn, `COc1ccc2cc(C(C)c3nnc4sc(-c5ccccc5N)nn34)ccc2c1` (stereo unspecified) came in with an Inhibition in the series with Rattus norvegicus [2] of 54.54%.

The compound `CCCCNc1nn2c(C(C)c3ccc4cc(OC)ccc4c3)nnc2s1` (stereo unspecified) yielded an Inhibition with Rattus norvegicus [2] of 40.9%.

Turning to `COc1ccc2cc(C(C)c3nnc4sc(Nc5ccccc5)nn34)ccc2c1` (stereo unspecified), the Inhibition in the series with Rattus norvegicus [2] came out at 43.93%.

Regarding `COc1ccc2cc(C(C)c3nnc4sc(-c5ccccc5)nn34)ccc2c1` (stereo unspecified), the UI in the series with Rattus norvegicus [1] stood at 0.5. In addition, the Inhibition was found to be 81.05% in the series on Rattus norvegicus [2] and 89.5% in the series on Rattus norvegicus [3]. For the same compound, the Activity in the series filed under Rattus norvegicus [4] was 4.86 nmol.

For the compound `COc1ccc2cc(C(C)c3nnc4sc(-c5ccc(Cl)cc5)nn34)ccc2c1` (stereo unspecified), the UI in the series on Rattus norvegicus [1] was 0.583. Further, the Inhibition with Rattus norvegicus [2] is 80.3%; in the series on Rattus norvegicus [3], 26.7%. The Activity in the series filed under Rattus norvegicus [4] worked out at 5.27 nmol.

On to `COc1ccc2cc(C(C)c3nnc4sc(Nc5ccc(C)cc5C)nn34)ccc2c1` (stereo unspecified), for which the UI in the series with Rattus norvegicus [1] worked out at 0.833. Moreover, the Inhibition worked out at 76.51% in the series with Rattus norvegicus [2] and 33.3% in the series on Rattus norvegicus [3]. For the same compound, in the series listed under Rattus norvegicus [4], the Activity turned out to be 6.11 nmol.

Consider `COc1ccc2cc(C(C)c3nnc4sc(-c5ccc(N)cc5)nn34)ccc2c1` (stereo unspecified), for which the UI in the series on Rattus norvegicus [1] stood at 0.833. Besides, the Inhibition in the series with Rattus norvegicus [2] turned out to be 78.02%; in the series on Rattus norvegicus [3], 58.1%. The Activity in the series listed under Rattus norvegicus [4] was determined as 5.85 nmol.

For the compound `COc1ccc2cc([C@H](C)C(=O)O)ccc2c1` [NAPROXEN], the inhibition in vivo at 30 mg/kg turned out to be 73.5% in the series on Rattus norvegicus [5] and 81.8% with Rattus norvegicus [6]. Besides, the Activity in the series listed under Rattus norvegicus [4] turned out to be 9.04 nmol.
